The structures appear in SMILES notation. Where “and” joins values, the source holds several entries; their conditions need not be identical. Equal values may be shown once. Where a name gives a salt, the structure may show the parent alone.

One series deals with T1, OAT3 (Homo sapiens, UniProt Q8TCC7).
T1 sequence (Q8TCC7 1-542): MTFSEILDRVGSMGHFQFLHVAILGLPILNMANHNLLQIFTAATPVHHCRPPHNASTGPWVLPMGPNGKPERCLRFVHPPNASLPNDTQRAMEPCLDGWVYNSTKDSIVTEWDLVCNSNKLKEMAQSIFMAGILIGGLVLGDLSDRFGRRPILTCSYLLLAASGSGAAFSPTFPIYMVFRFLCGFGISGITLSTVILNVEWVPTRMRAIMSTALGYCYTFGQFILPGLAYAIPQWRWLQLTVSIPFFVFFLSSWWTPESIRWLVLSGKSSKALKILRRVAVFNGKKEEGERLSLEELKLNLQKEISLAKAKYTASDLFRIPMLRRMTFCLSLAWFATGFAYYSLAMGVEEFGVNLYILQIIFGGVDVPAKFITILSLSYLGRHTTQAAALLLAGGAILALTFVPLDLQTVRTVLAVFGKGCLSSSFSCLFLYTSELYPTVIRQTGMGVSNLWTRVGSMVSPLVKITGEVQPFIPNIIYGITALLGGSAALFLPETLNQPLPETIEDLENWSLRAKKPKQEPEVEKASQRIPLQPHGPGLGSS
The experiment in a line: Substrate of OAT3, uptake in HEK293 cells. Conditions: probe substrate 1 μM. An excerpt:
(§1) Vector-transfected HEK cells were used as a control.

The target in series [1] is T2, OCT2 (Homo sapiens, UniProt O15244).
T2 sequence (O15244 1-555): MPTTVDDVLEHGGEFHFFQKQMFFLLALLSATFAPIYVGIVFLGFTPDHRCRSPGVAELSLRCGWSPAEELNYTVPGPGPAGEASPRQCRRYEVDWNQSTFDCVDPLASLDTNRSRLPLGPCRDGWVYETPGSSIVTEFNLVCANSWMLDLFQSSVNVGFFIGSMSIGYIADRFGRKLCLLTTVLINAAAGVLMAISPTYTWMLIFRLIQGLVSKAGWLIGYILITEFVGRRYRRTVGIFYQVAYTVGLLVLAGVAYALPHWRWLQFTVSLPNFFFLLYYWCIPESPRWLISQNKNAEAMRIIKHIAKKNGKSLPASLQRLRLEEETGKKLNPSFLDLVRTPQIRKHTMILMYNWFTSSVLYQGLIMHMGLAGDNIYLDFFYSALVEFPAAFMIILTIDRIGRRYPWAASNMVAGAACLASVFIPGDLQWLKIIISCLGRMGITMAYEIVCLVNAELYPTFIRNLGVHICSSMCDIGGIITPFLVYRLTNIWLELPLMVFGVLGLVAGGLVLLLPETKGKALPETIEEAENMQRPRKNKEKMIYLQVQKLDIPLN
The experiment in a line: Substrate of OCT2, uptake in HEK293 cells. To be noted: probe substrate 1 μM.
Text: as §1

The target of series [2] is T2, OCT2. The experiment in a line: OCT2 inhibition, MPP+ uptake in transfected HEK cells. Conditions: no inhibitor.
A further series relates to human hepatocytes. The experiment in a line: Cell viability after CYP induction treatment (MTS). Conditions: controls at induction concentrations. How it is done:
Plateable and inducible cryopreserved human hepatocytes were thawed and isolated in human hepatocyte thawing medium. […] After attachment (4 hours), the medium was changed to fresh hepatocyte culture medium for overnight cell recovery. […] A positive control (100 μM chlorpromazine) was treated in parallel.
After the CYP induction treatment, the cells were used for cell viability assay. The viability of cells (expressed as the percentage of MTS absorbance relative to vehicle control) was measured as described herein.

The next series has as its system CYP2B6 mRNA. The series is described as follows: CYP2B6 mRNA induction in human hepatocytes (qPCR). Conditions: phenobarbital 1,000 μM, flumazenil 10 μM. The method, then:
Plateable and inducible cryopreserved human hepatocytes were thawed and isolated in human hepatocyte thawing medium.
All experiments were performed in triplicate.
After induction treatment, CYP mRNA expression was measured by qPCR. Total RNA was isolated from the treated cells using the RNeasy® mini kit (Qiagen, Valencia, CA, USA) and treated with RNase-free DNase (Qiagen) following the manufacturer's protocols. The concentration of RNA was determined using a Qubit® Fluorometer with a Qubit RNA HS assay kit (Invitrogen). cDNA was synthesized from up to […] of the total RNA harvested from the cells using a QuantiTect® RT kit (Qiagen). Analysis of CYP gene expression by qPCR (Table 3) was performed using the LightCycler® 480 II System (Roche Diagnostics Corporation, Indianapolis, IN, USA).
Relative mRNA was expressed as the fold-increase calculated from the normalized mRNA level (2^−ΔΔCt) relative to vehicle control. The percentage of mRNA fold-increase relative to positive control was calculated using the following equation:
% Induction relative to positive control=100×(mRNATA−mRNAvehicle)/(mRNApositive control−mRNAvehicle)

For the next series, the target named is OATP1B1 (Homo sapiens, UniProt Q9Y6L6). The series is described as follows: OATP1B1 inhibition, atorvastatin uptake in transfected HEK cells.
Sequence of OATP1B1 (Q9Y6L6 whole entry): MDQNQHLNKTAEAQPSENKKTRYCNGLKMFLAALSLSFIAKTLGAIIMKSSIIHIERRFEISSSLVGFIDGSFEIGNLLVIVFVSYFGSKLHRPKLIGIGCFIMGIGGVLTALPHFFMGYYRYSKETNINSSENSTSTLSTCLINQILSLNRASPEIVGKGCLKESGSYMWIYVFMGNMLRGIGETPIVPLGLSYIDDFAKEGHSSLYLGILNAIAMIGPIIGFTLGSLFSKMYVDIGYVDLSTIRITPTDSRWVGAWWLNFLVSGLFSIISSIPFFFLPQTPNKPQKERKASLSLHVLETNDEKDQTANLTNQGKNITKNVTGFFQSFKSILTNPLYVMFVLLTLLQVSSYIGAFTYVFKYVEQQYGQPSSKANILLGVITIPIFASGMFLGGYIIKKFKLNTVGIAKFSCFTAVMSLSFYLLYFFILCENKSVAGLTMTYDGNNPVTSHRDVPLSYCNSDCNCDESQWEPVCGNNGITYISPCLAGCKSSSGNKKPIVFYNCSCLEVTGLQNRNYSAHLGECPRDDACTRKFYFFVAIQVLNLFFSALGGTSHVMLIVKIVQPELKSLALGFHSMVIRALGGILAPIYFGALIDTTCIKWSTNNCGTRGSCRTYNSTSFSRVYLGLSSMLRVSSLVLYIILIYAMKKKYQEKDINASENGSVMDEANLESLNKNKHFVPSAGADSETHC
Another series deals with OATP1B3 (Homo sapiens, UniProt Q9NPD5). The experiment in a line: OATP1B3 inhibition, atorvastatin uptake in transfected HEK cells. To be noted: for Influx Rate of […] Atorvastatin (5 min): OATP1B3-HEK Cells.
Sequence of OATP1B3 (Q9NPD5 whole entry): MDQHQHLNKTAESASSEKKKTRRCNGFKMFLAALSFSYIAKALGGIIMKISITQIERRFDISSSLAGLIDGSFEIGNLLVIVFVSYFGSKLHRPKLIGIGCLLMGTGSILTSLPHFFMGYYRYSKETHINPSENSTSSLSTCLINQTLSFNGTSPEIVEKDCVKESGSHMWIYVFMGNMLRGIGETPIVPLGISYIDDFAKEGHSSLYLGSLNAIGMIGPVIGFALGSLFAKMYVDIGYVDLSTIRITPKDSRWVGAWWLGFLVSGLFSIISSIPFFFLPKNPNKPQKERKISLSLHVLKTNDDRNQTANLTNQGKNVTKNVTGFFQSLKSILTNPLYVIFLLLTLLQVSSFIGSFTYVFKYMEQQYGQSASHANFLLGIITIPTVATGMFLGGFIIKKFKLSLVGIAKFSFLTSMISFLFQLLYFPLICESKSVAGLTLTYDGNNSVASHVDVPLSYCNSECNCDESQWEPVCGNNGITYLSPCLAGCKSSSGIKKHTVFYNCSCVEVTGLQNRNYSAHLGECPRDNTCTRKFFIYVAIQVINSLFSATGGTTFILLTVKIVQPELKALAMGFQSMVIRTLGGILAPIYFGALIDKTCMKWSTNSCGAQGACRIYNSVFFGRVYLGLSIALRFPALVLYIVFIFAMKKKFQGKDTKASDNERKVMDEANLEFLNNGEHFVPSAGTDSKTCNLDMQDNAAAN
Series [3] in a line: Rat drug-drug interaction study TDF + AMX0035: urine recovery. Format: in vivo. Conditions: male, Sprague-Dawley, rat, in vivo. The method, then: Total urine recovery data for Tenofovir, TDF, and PB was calculated for the 24 hour collection period on Days 1 and 5. […] The reported urine recovery data included amount recovered (ng) and percent recovered (%) for […]. Individual and mean Tenofovir, TDF, and PB urine recovery data were presented with SD, reported to three significant figures, and CV %, reported to one decimal place.

For series [4] the following is noted: rat, in vivo.
The target in the next series is T3, MATE1 (Homo sapiens, UniProt Q96FL8).
T3 sequence (Q96FL8 1-570): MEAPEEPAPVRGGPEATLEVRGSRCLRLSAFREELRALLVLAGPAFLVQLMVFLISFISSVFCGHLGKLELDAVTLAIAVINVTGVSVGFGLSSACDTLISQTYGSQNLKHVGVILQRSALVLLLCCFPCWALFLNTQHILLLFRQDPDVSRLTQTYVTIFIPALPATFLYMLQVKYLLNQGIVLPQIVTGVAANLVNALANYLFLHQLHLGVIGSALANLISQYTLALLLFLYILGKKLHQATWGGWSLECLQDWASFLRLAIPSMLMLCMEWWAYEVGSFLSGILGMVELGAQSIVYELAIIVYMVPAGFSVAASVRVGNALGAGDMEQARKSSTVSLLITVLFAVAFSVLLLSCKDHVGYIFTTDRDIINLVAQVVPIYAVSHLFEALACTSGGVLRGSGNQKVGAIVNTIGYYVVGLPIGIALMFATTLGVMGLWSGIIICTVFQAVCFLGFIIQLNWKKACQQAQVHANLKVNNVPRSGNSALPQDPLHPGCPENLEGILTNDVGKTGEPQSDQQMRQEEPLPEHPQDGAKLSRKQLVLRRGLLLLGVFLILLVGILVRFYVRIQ
The series is described as follows: MATE1 inhibition, metformin uptake in transfected HEK cells. Conditions: no inhibitor.

A further series deals with MATE2K (Homo sapiens, UniProt Q86VL8). The experiment in a line: MATE2K inhibition, metformin uptake in transfected HEK cells. To be noted: no inhibitor.
Sequence of MATE2K (Q86VL8 1-566 isoform Q86VL8-3): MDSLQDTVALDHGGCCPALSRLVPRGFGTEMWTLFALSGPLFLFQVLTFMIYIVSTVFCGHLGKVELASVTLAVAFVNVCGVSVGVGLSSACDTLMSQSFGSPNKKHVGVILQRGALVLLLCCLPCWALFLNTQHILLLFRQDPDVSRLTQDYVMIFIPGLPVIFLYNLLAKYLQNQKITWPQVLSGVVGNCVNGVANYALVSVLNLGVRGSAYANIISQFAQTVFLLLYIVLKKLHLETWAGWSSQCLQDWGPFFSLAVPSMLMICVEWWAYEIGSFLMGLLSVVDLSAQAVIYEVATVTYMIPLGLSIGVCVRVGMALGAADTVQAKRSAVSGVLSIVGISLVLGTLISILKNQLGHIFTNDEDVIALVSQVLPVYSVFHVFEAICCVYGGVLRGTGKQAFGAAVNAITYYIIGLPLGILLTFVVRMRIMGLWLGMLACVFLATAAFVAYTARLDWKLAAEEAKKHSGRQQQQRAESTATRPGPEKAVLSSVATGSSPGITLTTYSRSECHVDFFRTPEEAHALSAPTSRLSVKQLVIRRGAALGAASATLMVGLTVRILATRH
[5] abbreviates: Vector Control Cells, replicates.

For the compound `C[C@]12CC[C@@H]3c4ccc(OS(=O)(=O)O)cc4CC[C@H]3[C@@H]1CCC2=O` [3H-estrone-3-sulfate], the “Fold uptake over the vector control by OAT3” value on OAT3 is listed as 25.9 fold.

As to `CN(C)C(N)=NC(=N)N` [14C-metformin], the “Fold uptake over the vector control by OCT2” value on OCT2 [1] is on record as 43.7 fold.

On to `C[n+]1ccc(-c2ccccc2)cc1` [MPP+, 1-methyl-4-phenylpyridinium], for which, on OCT2 [2] (OCT2), the “Net Influx Rate of 5 μM MPP+” value was 847 pmol/mg protein/minute. In addition, the “Influx rate ratio (OCT2 over vector control)” value on OCT2 [2] stood at 48.9. The “Influx Rate of 5 μM MPP+ (2 min)” value at OCT2 [2] (OCT2-HEK Cells, Average) was 864 pmol/mg protein/minute; at OCT2 [2] (OCT2-HEK Cells, replicates), 896 pmol/mg protein/minute and 833 pmol/mg protein/minute; at OCT2 [2] (Vector Control Cells, Average), 17.7 pmol/mg protein/minute; at OCT2 [2] (setting [5]), 19.0 pmol/mg protein/minute and 16.3 pmol/mg protein/minute. In addition, the “Influx Rate Ratio of MPP+” value on OCT2 [2] (OCT2 over vector control) was 48.9.

As for `CCC1(c2ccccc2)C(=O)NC(=O)NC1=O` [Phenobarbital, phenobarbital], the “% MTS absorbance relative to vehicle control” value in the series on human hepatocytes (donor 1) is 97.7%; in the series with human hepatocytes (donor 2), 98.8%; in the series on human hepatocytes (donor 3), 108%. In addition, the entries for the “Formazan absorbance, mean (n=6)” value in the series on human hepatocytes (donor 1), with human hepatocytes (donor 2) and in the series with human hepatocytes (donor 3) were 0.417, 0.504 and 0.320, respectively. Moreover, the “% induction relative to positive control” value with CYP2B6 mRNA (donor 1), in the series with CYP2B6 mRNA (donor 2) and in the series on CYP2B6 mRNA (donor 3) was 100% in each case. In addition, the “CYP2B6 mRNA fold-increase, mean” value amounted to 21.8 fold with CYP2B6 mRNA (donor 1), 39.6 fold in the series on CYP2B6 mRNA (donor 2) and 7.36 fold in the series on CYP2B6 mRNA (donor 3).

Consider `CO[C@H]1/C=C/O[C@@]2(C)Oc3c(C)c([O-])c4c(O)c(cc(O)c4c3C2=O)NC(=O)/C(C)=C\C=C\[C@H](C)[C@H](O)[C@@H](C)[C@@H](O)[C@@H](C)[C@H](OC(C)=O)[C@@H]1C.[Na+]` [RSV, rifamycin SV], for which the “Influx Rate of […] Atorvastatin (5 min)” value was 0.702 pmol/mg protein/minute on OATP1B1 (10 μM RSV, OATP1B1-HEK Cells, Average); 0.724 pmol/mg protein/minute and 0.681 pmol/mg protein/minute on OATP1B1 (10 μM RSV, OATP1B1-HEK Cells, replicates); 0.518 pmol/mg protein/minute at OATP1B1 (10 μM RSV, Vector Control Cells, Average); 0.496 pmol/mg protein/minute and 0.541 pmol/mg protein/minute on OATP1B1 (10 μM RSV, Vector Control Cells, replicates); 0.573 pmol/mg protein/minute on OATP1B3 (10 μM RSV, Average); 0.576 pmol/mg protein/minute and 0.571 pmol/mg protein/minute at OATP1B3 (10 μM RSV, replicates). Besides, the “Net Influx Rate of […] Atorvastatin” value came to 0.184 pmol/mg protein/minute on OATP1B1 (OATP1B1, 10 μM RSV) and 0.0551 pmol/mg protein/minute on OATP1B3 (OATP1B3, 10 μM RSV). In addition, the “Percentage Inhibition” value is 96.7% at OATP1B1 (OATP1B1, 10 μM RSV) and 98.1% at OATP1B3 (OATP1B3, 10 μM RSV). Besides, the entries for the “% inhibition of atorvastatin uptake” value at OATP1B1 (known inhibitor) and at OATP1B3 (known inhibitor) were 96.7% and 98.1%, respectively.

In the case of `CC(C)OC(=O)OCOP(=O)(CO[C@H](C)Cn1cnc2c(N)ncnc21)OCOC(=O)OC(C)C` [TDF, Tenofovir Disoproxil Fumarate], in series [3], the Urine concentrations result is “Urine concentrations for PB analysis in all animals on Day 1, for TUDCA analysis in all animals on Days 1 and 5, and for TDF analysis in two animals on Day 1 and one animal on Day 5 were BLQ (<20 mg/mL) so no recovery data was calculated”. In addition, the Prodrug in plasma result in [4] is reported as “No prodrug (TDF) was detected in plasma”.

With `CN(C)C(=N)N=C(N)N` [metformin], the “Net Influx Rate of 50 μM Metformin” value at MATE1 (MATE1) turned out to be 572 pmol/mg protein/minute; on MATE2K (MATE2K) it was 36.1 pmol/mg protein/minute. Also, the “Influx rate ratio (MATE1 over vector control)” value on MATE1 was determined as 43.4. In addition, the “Influx Rate of 50 μM Metformin (10 min)” value is 586 pmol/mg protein/minute at MATE1 (MATE1-HEK Cells, Average); 515 pmol/mg protein/minute and 656 pmol/mg protein/minute at MATE1 (MATE1-HEK Cells, replicates); 13.5 pmol/mg protein/minute at MATE1 (Vector Control Cells, Average); 15.6 pmol/mg protein/minute and 11.3 pmol/mg protein/minute on MATE1 (setting [5]); 57.4 pmol/mg protein/minute at MATE2K (MATE2K HEK Cells, Average); 54.5 pmol/mg protein/minute and 60.2 pmol/mg protein/minute on MATE2K (MATE2K HEK Cells, replicates). The “Influx Rate of 50 μM Metformin (10 min)” value on MATE2K (Vector Control Cells, Average) was 21.3 pmol/mg protein/minute; on MATE2K (setting [5]), 19.6 pmol/mg protein/minute and 22.8 pmol/mg protein/minute. Also, the “Influx Rate Ratio of metformin” value at MATE1 (MATE1 over vector control) worked out at 43.4; on MATE2K (MATE2K over vector control), 2.70. Further, the “Influx rate ratio (MATE2K over vector control)” value at MATE2K came to 2.70.

The values above are taken from patent US20240139211A1, “METHODS AND COMPOSITIONS FOR TREATING AMYOTROPHIC LATERAL SCLEROSIS” (Amylyx Pharmaceuticals, Inc., priority 2022, published 2024).
